Test results reported in patent US12385839B2, “Use of protein in predicting drug properties” (priority 2021, dated 2025).
Like-named read-outs stand apart in the source and are kept apart here.

Columns and labels:
[1] = cited from earlier work; for LD50: modelling table; for Toxicity: toxicity grade by LD50, trailing figure = number of pesticides in group
[2] = molecular target: T1, human serum albumin (HSA) (Homo sapiens, UniProt P02768); experiment: Fluorescence emission spectrum (quenching) of HSA with carbamate pesticides; assay type: binding; conditions: for Ksv (37°) / ΔG(37°) / Binding distance/r / Number of binding sites/n: modelling table; for Kq / Ksv / n (number of binding sites) / Kd: pH 7.4; for R (binding distance): Förster energy transfer; for fluorescence of HSA quenched by pesticide: titration of pesticide; for ΔH^0 / ΔS^0: Van't Hoff, 296-310 K
Description: the mixed solution to be tested was preheated at […] for 3 minutes, and the emission spectrum of HSA with carbamate pesticides was measured at 300-500 nm . The excitation wavelength was set at 280 nm , and the slit width for both excitation and emission was 15 nm; the HSA concentration was kept constant at 5×10^−7 M, and the pesticide concentration was (0-105)×10^−7 M.
The internal filtering effect of fluorescence signal was corrected according to the following formula: Fcor=Fobsexp[(Aex+Aem)/2] (1);
in this formula, Fcor and Fobs represent corrected fluorescence signal and observed fluorescence signal, respectively, and Aex and Aem represent absorbance of the mixed solution to be tested at excitation wavelength and emission wavelengths, respectively; the quenching constant, number of binding sites, binding constant, free energy and binding distance of different drugs were obtained by fluorescence emission spectra, and a BP neural network model was obtained. Specifically, they were obtained as follows:
There is a linear relationship between F0/F and [Q] to distinguish whether it is static quenching or dynamic quenching. The fluorescence quenching data are analyzed by Stern-Volmer equation to clarify the quenching mechanism: F0/F=1+KSV[Q]=1+Kqτ0[Q] (2);
in the formula, F0 and F are fluorescence signals […] quencher, respectively. Ksv is Stern-Volmer quenching constant; Kq is a quenching rate constant of biomolecules; τ0 is the average lifetime of biomolecules without quencher (about 10^−8 s); [Q] is the concentration of quencher.
The maximum dynamic quenching rate constant of all kinds of quenchers on polymers was 2.0×10^10 L·mol^−1·s^−1. Static quenching and dynamic quenching could be judged according to this value. If K^q was greater than 2.0×10^10 L·mol^−1·s^−1, it belonged to static quenching. Otherwise, it belonged to dynamic quenching.
In this part, the binding sites and binding constants between carbamate pesticides and HSA were calculated. The following formula was used to calculate the number of binding sites (n) and the binding constant (Ka) of carbamate pesticides and HSA: log[(F0−F)/F]=log Ka+nlog[Q] (3);
The interactions between biological molecules and drug molecules were weak intermolecular interactions, including hydrogen bonds, van der Waals forces, electrostatic forces and hydrophobic interactions. By using Van't Hoff equation, the thermodynamic constants of drug-protein interaction were obtained, and the main types of drug-protein interaction were judged according to the changes of binding constants under different conditions. LnK=−ΔH^0/RT+ΔS^0/R (4); ΔG^0=ΔH^0−TΔS^0 (5);
There is a relationship among energy transfer efficiency E, distance r between energy donor and energy receptor and energy transfer distance R0. E=1−F/F0=R0^6/(R0^6+r^6) (6);
E represents the transfer efficiency between donor and receptor, r is the average distance between donor and receptor, and R0 is the critical distance when the transfer efficiency is 50%. R0^6=8.79×10^−K^2N^−4φJ (7)
K^2 is the orientation related to the geometry of donor and receptor of dipole. For random orientation in fluid, K^2=2/3; N is the average refractive index of the medium in the wavelength range with obvious spectral overlap, and the refractive index of water and organic matter is 1.336; φ is the quantum yield of donor, and the quantum yield of tryptophan in HSA is about 0.118; J represents the influence of spectral overlap between the emission spectrum of the donor and the absorption spectrum of the receptor, and can be calculated by the following formula: j=ΣF(λ)ϵ(λ)λ^4Δλ/ΣF(λ) Δλ (8);
F(λ) is the corrected fluorescence signal of the donor in the wavelength range from λ to (λ+Δλ), while ϵ(λ) is the extinction coefficient of the receptor at λ.

[3] = molecular target: T1, human serum albumin (HSA); experiment: Circular dichroism spectrum, secondary structure (α-helix content) of HSA; conditions: HSA 2×10^−6 M
Description: the mixed solution to be tested was preheated at […] for 2-5 minutes, and the CD spectrum of HSA was recorded in the wavelength range of 200-500 nm . The concentration of HSA was kept at 2×10^−6 M, and the pesticide was (0-20)×10^−6 m. Firstly, HSA was measured, and then the ratio of HSA to pesticides needed to be determined specifically, which was preliminarily determined according to the ratio of 1:1, 1:2 and 1:3.
According to the following equation, the result of CD spectrum was usually expressed as the mean residue ellipticity (MRE), and the unit was deg·cm^2·dmol^−1. MRE=ObservedCD(mdeg)/(10Cpnl) (9);
in which Cp is the molar concentration of protein, n is the number (585) of amino acid residues, and 1 is the path length (1 mm). The α helicity of free and bound HSA is calculated from MRE values using the following formula: α−Helix(%)=[(−MRE208−4000)×100]/(33000-4000) (10)
in which the MRE208 is the MRE value observed at 208 nm , 4000 is the MRE value of random coil conformation at 208 nm , and […] is the MRE value of pure α helix at 208 nm .

T1 sequence (P02768 25-609): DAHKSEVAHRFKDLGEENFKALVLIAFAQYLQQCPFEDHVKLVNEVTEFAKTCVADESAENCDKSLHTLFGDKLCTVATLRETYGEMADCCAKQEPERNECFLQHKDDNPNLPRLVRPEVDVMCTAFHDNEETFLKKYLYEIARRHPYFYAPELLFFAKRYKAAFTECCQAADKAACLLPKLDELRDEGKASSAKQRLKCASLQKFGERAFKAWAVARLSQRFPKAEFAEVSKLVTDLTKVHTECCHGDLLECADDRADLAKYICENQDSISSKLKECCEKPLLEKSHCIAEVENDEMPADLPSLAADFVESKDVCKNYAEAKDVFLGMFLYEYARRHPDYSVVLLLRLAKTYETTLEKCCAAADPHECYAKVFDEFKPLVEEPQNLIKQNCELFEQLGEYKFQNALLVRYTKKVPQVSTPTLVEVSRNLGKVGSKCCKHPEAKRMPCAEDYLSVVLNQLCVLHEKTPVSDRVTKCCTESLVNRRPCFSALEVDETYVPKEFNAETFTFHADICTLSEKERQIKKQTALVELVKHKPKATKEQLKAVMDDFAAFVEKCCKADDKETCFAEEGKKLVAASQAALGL

| SMILES | LD50 [1] [mg/kg] | Toxicity [1] | Ksv (37°) [2] | ΔG(37°) [2] | ΔG^0 ([2]; 296 K) [kcal/mol] | Kq ([2]; 296 K) | Ksv ([2]; 296 K) | n (number of binding sites) ([2]; 296 K) | ΔG^0 ([2]; 303 K) [kcal/mol] | Kq ([2]; 303 K) | Ksv ([2]; 303 K) | n (number of binding sites) ([2]; 303 K) | ΔG^0 ([2]; 310 K) [kcal/mol] | R (binding distance) ([2]; 310 K) [nm] | Kq ([2]; 310 K) | Ksv ([2]; 310 K) | n (number of binding sites) ([2]; 310 K) | fluorescence of HSA quenched by pesticide ([2]; 310 K) | ΔH^0 [2] [kcal/mol] | ΔS^0 [2] [J · mol^−1 · K^−1] | further results |
| --- | --- | --- | --- | --- | --- | --- | --- | --- | --- | --- | --- | --- | --- | --- | --- | --- | --- | --- | --- | --- | --- |
| CNC(=O)Oc1cccc2c1OC(C)(C)C2 [Carbofuran, carbofuran] | 5 | Highly | 87696.31575 | −25.15 | -5.0459 | 5.563 ± 0.123 10^12 M^−1s^−1 | 5.563 ± 0.123 10^4 M^−1 | 0.797 ± 0.002 | -5.5287 | 7.239 ± 0.082 10^12 M^−1s^−1 | 7.239 ± 0.082 10^4 M^−1 | 0.822 ± 0.002 | -6.0117 | 1.938 | 8.770 ± 0.088 10^12 M^−1s^−1 | 8.770 ± 0.088 10^4 M^−1 | 0.862 ± 0.002 | quenched | 15.374 | 288.639 | Kd ([2]; Ka (binding constant), 296 K): 185 µM; Kd ([2]; Ka (binding constant), 303 K): 107 µM; Kd ([2]; Ka (binding constant), 310 K): 56.7 µM; Binding distance/r [2]: 1.938; Number of binding sites/n [2]: 0.8616; α-helix contents ([3]; 5:1 (Pesticide:HSA)): 51.483%; α-helix contents ([3]; 10:1 (Pesticide:HSA)): 48.304% |
| CCSCc1ccccc1OC(=O)NC [Ethiofencarb, ethiofencarb] | 200 | Moderately | 41346.56830 | −17.7 | -3.4355 | 2.562 ± 0.137 10^12 M^−1s^−1 | 2.562 ± 0.137 10^4 M^−1 | 0.613 ± 0.003 | -3.8329 | 3.301 ± 0.074 10^12 M^−1s^−1 | 3.301 ± 0.074 10^4 M^−1 | 0.645 ± 0.009 | -4.2302 | 2.363 | 4.135 ± 0.166 10^12 M^−1s^−1 | 4.135 ± 0.166 10^4 M^−1 | 0.674 ± 0.002 | quenched | 13.365 | 237.483 | Kd ([2]; Ka (binding constant), 296 K): 2920 µM; Kd ([2]; Ka (binding constant), 303 K): 1710 µM; Kd ([2]; Ka (binding constant), 310 K): 1050 µM; Binding distance/r [2]: 2.363; Number of binding sites/n [2]: 0.6742; α-helix contents ([3]; 5:1 (Pesticide:HSA)): 49.087%; α-helix contents ([3]; 10:1 (Pesticide:HSA)): 48.340% |
| CNC(=O)Oc1ccccc1C(C)C [Isoprocarb, isoprocarb] | 450 | Moderately | 30154.52708 | −18.11 | -3.6472 | 2.175 ± 0.070 10^12 M^−1s^−1 | 2.175 ± 0.070 10^4 M^−1 | 0.669 ± 0.004 | -3.9873 | 2.758 ± 0.048 10^12 M^−1s^−1 | 2.758 ± 0.048 10^4 M^−1 | 0.689 ± 0.004 | -4.3274 | 2.338 | 3.015 ± 0.043 10^12 M^−1s^−1 | 3.015 ± 0.043 10^4 M^−1 | 0.712 ± 0.009 | quenched | 10.734 | 203.281 | Kd ([2]; Ka (binding constant), 296 K): 2050 µM; Kd ([2]; Ka (binding constant), 303 K): 1300 µM; Kd ([2]; Ka (binding constant), 310 K): 900 µM; Binding distance/r [2]: 2.338; Number of binding sites/n [2]: 0.7116; α-helix contents ([3]; 5:1 (Pesticide:HSA)): 50.878%; α-helix contents ([3]; 10:1 (Pesticide:HSA)): 49.242% |
| CNC(=O)ON=C(C)SC [Methomyl, methomyl] | 14.7 | Highly | 52883.69408 | −21.14 | -3.8554 | 3.401 ± 0.068 10^12 M^−1s^−1 | 3.401 ± 0.068 10^4 M^−1 | 0.661 ± 0.003 | -4.4534 | 4.025 ± 0.136 10^12 M^−1s^−1 | 4.025 ± 0.136 10^4 M^−1 | 0.727 ± 0.008 | -5.0514 | 2.145 | 5.288 ± 0.093 10^12 M^−1s^−1 | 5.288 ± 0.093 10^4 M^−1 | 0.766 ± 0.002 | quenched | 21.433 | 357.453 | Kd ([2]; 296 K, read-out: Ka (binding constant)): 1460 µM; Kd ([2]; 303 K, read-out: Ka (binding constant)): 579 µM; Kd ([2]; 310 K, read-out: Ka (binding constant)): 283 µM; Binding distance/r [2]: 2.145; Number of binding sites/n [2]: 0.7657; α-helix contents ([3]; 5:1 (Pesticide:HSA)): 50.756%; α-helix contents ([3]; 10:1 (Pesticide:HSA)): 49.970% |
| CNC(=O)Oc1cccc(C)c1 [Metolcarb, metolcarb] | 268 | Moderately | 44415.60221 | −16.22 | -3.1766 | 3.261 ± 0.020 10^12 M^−1s^−1 | 3.261 ± 0.020 10^4 M^−1 | 0.564 ± 0.012 | -3.5268 | 3.415 ± 0.159 10^12 M^−1s^−1 | 3.415 ± 0.159 10^4 M^−1 | 0.587 ± 0.001 | -3.8772 | 2.525 | 4.442 ± 0.118 10^12 M^−1s^−1 | 4.442 ± 0.118 10^4 M^−1 | 0.616 ± 0.003 | quenched | 11.633 | 209.338 | Kd ([2]; Ka (binding constant), 296 K): 4450 µM; Kd ([2]; Ka (binding constant), 303 K): 2950 µM; Kd ([2]; Ka (binding constant), 310 K): 1820 µM; Binding distance/r [2]: 2.525; Number of binding sites/n [2]: 0.6156; α-helix contents ([3]; 5:1 (Pesticide:HSA)): 53.549%; α-helix contents ([3]; 10:1 (Pesticide:HSA)): 53.215% |
